According to patent US20150352078A1, “PHARMACEUTICAL COMPOSITION FOR DISEASES CAUSED BY PATHOGENIC MICROORGANISMS SUCH AS CANDIDA” (POLA PHARMA INC., priority 2013, published 2015):
Converted amounts (≈) assume the structure as drawn. Like-named read-outs stand apart in the source and are kept apart here.

Columns and labels:
protozoa = settings: stated as known; cited from earlier work
Chlamydia = settings: stated as known; cited from earlier work
Trichomonas vaginalis = assay: Effect on growth of clinically isolated Trichomonas vaginalis in Trichomonas medium F (Neutral Red colour, microscopic observation); format: cell-based; settings: for MIC: Trichomonas vaginalis, 72 hours culture, read-out: minimum growth inhibitory concentration (MIC); for Color: Neutral Red marker (yellow = acid production/growth); for Color / Result of microscopic observation: 37° C., 72 hours; for Result of microscopic observation: inverted microscope
Description: The effect on Trichomonas vaginalis was investigated for luliconazole of the compound represented by the general formula (1). That is, 5×10^6 cells of clinically isolated Trichomonas vaginalis were seeded in Trichomonas medium F (6.5 mL, contained in tube) produced by Fujiyakuhin Co., Ltd. containing Neutral Red as a marker, and the preculture was carried out for 72 hours (preculture). It was confirmed that Trichomonas grew, the acid was actively produced, and Neutral Red was changed to be yellow. After that, the preculture was added to Trichomonas medium F by every 100 μL in order to carry out the main culture, to which 0.5 mL of a test solution was added. In this situation, the number of protozoas in the solution of preculture was 1.5×10^5 cells/mL. Three series of test solutions were prepared, in which the luliconazole concentrations were 200 μM (final concentration: 35.2 μM), 100 μM (final concentration: 17.6 μM), and 50 μM (final concentration: 8.8 μM), as luliconazole dissolved in 10% methanol saline solution. 0.5 mL of vehicle was added as a control. As for the vehicle, 10% methanol saline solution (final concentration: 0 μM) was used. Stirring was sufficiently performed after the addition, followed by culturing at 37° C. for 72 hours. After the completion of the cultivation, the color was discriminated, and the state of protozoas was observed by using an inverted microscope.
The same or equivalent investigation as that of Example 1 was performed while changing luliconazole to lanoconazole.

Candida albicans = assay: In vitro antifungal activity on Candida albicans, broth microdilution method; format: cell-based; settings: 48 hours, 80% growth inhibition, turbidity at 630 nm, read-out: minimum growth inhibitory concentration (MIC80)
Description: The minimum growth inhibitory concentration (MIC) was measured by means of the broth microdilution method (medicament ×2 dilution series) based on the use of […] medium (pH 7.0) buffered with 0.165 M morpholinopropanesulfonic acid. 100 μL of test microorganism yeast cells/sterilized physiological saline suspensions (1 to 5×10^3 cells/mL) and 100 μL of media previously added with respective compounds and medium not added with, compounds as a control were dispensed into respective wells of flat-bottom microculture plate.

[1] = test system: Chlamydia trachomatis (D/UW3/Cx); assay: Anti-intracellular parasite action on Chlamydia trachomatis cultured in HeLa 229 host cells, fluorescent staining of inclusion bodies; format: cell-based
Description: The anti-intracellular parasite action was investigated by using Chlamydia trachomatis (D/UW3/Cx). That is, Chlamydia trachomatis was cultured in the presence of ×2 dilution series of 8 to 64 μg/ml of luliconazole by using HeLa 229 cells as the host. MEM added with 8% thermally inactivated FBS, to which 1 μg/ml of cyclohexamide was added, was used as the medium, and the culture was performed for 72 hours in 5% carbon dioxide gas at 37° C. After the culture, Chlamydia inclusion bodies were subjected to the fluorescent staining to be apple green with Chlamydia FA reagent “Seiken” (produced by DENKA SEIKEN Co., Ltd.), and the observation was performed by using a fluorescence microscope.

MIC (Trichomonas vaginalis) [µM] | MIC80 (Candida albicans; strain IFO0197, 35° C.) [µg/mL] | MIC80 (Candida albicans; strain IFO0579, 35° C.) [µg/mL] | MIC80 (Candida albicans; strain IFO1269, 35° C.) [µg/mL] | MIC80 (Candida albicans; strain TIMM3164, 35° C.) [µg/mL] | Compound | antiprotozoal action (protozoa) | anticlamydial action (Chlamydia) | Color (Trichomonas vaginalis; final concentration 8.8 μM) | Color (Trichomonas vaginalis; final concentration 17.6 μM) | Result of microscopic observation (Trichomonas vaginalis; final concentration 17.6 μM) | Color (Trichomonas vaginalis; final concentration 35.2 μM) | Result of microscopic observation (Trichomonas vaginalis; final concentration 35.2 μM) | other results
– | – | – | – | – | CN(Cc1ccc(C(C)(C)C)cc1)Cc1cccc2ccccc12 [butenafine] | do not have | do not have | – | – | – | – | – | –
~17.6 (≈ 5.63 µg/mL) | 0.125 (≈ 0.391 µM) | 0.0625 (≈ 0.195 µM) | 0.0625 (≈ 0.195 µM) | 0.5 (≈ 1.56 µM) | N#C/C(=C1/SCC(c2ccccc2Cl)S1)n1ccnc1 (centres unmarked) [Lanoconazole, 4-(2-chlorophenyl)-1,3-dithiolane-2-ylidene-1-imidazolyl acetonitrile] | – | – | yellow | red | protozoas were observed slightly | red | no protozoa was observed | growth of Trichomonas (Trichomonas vaginalis; no concentration stated): inhibits the growth
– | – | – | – | – | Clc1ccc(COC(Cn2ccnc2)c2ccc(Cl)cc2Cl)c(Cl)c1 (centres unmarked) [miconazole] | do not have | do not have | – | – | – | – | – | –
~8.8 (≈ 3.12 µg/mL) | 0.0625 (≈ 0.176 µM) | 0.0313 (≈ 0.0883 µM) | 0.0625 (≈ 0.176 µM) | 0.5 (≈ 1.41 µM) | N#C/C(=C1/SC[C@@H](c2ccc(Cl)cc2Cl)S1)n1ccnc1 [Luliconazole, (R)-(−)-(E)-[4-(2,4-dichlorophenyl)-1,3-dithiolane-2-ylidene]-1-imidazolyl acetonitrile] | – | – | yellow | red | no protozoa was observed | red | no protozoa was observed | growth of Trichomonas (Trichomonas vaginalis; at 8.8 μM): inhibits the growth; Result of microscopic observation (Trichomonas vaginalis; final concentration 8.8 μM): protozoas were observed slightly; MIC ([1]; Chlamydia trachomatis, HeLa 229 host cells, 72 hours culture, read-out: MIC with respect to Chlamydia trachomatis): 32 µg/mL (≈ 90.3 µM); observation result of Chlamydia inclusion bodies ([1]; treatment with 8 μg/mL, FIG. 1 panel (A)): dot-shaped Chlamydia inclusion bodies stained apple green were observed; observation result of Chlamydia inclusion bodies ([1]; treatment with 16 μg/mL, FIG. 1 panel (B)): dot-shaped Chlamydia inclusion bodies stained apple green were observed; observation result of Chlamydia inclusion bodies ([1]; treatment with 32 μg/mL, FIG. 1 panel (C)): No inclusion body was found
– | – | – | – | – | CCC(C)(C)c1ccc(CC(C)CN2C[C@@H](C)O[C@@H](C)C2)cc1 (some centres unmarked) [amorolfin] | do not have | do not have | – | – | – | – | – | –
– | – | – | – | – | c1ccc(-c2ccc(C(c3ccccc3)n3ccnc3)cc2)cc1 (centres unmarked) [bifonazole] | do not have | do not have | – | – | – | – | – | –
